One may read the thermodynamic solubility as the concentration in solution at equilibrium with solid.

The structures appear in SMILES notation. In brackets after ≈: the same amount, converted by molar mass. Like-named read-outs stand apart in the source and are kept apart here. Peptide text beside a SMILES is read from it. * marks the point of attachment. βGlc = OC[C@H]1O[C@@H](*)[C@H](O)[C@@H](O)[C@@H]1O

Three compounds from publication PMC8398878, “Synthesis, Physicochemical Characterization, In Vitro 2D/3D Human Cell Culture, and In Vitro Aerosol Dispersion Performance of Advanced Spray Dried and Co-Spray Dried Angiotensin (1—7) Peptide and PNA5 with Trehalose as Microparticles/Nanoparticles for Targeted Respiratory Delivery as Dry Powder …” (Pharmaceutics, 2021) can be followed below.

Series [1] deals with H441 lung epithelial cells. The experiment in a line: In vitro 2D cell viability, resazurin assay. The settings on record: for safe (non-toxic) concentration: epithelium lung cells (H441).
Description: (§1) In vitro human cell viability assays were performed to measure the biocompatibility and safety of Ang (1—7) and PNA5 on nasal epithelium RPMI 2650 cells, hCMEC/D3 blood–brain barrier endothelial cells, NHA, A549, and H441 lung cells using resazurin as a marker.
(§2) A549 adenocarcinoma human alveolar basal epithelial cells (ATCC® CCL-185™) and H441 lung adenocarcinoma cells (ATCC®HTB174™) were used at passages 9 and 8, respectively, for the experiments. Both cell types were grown in a growth in RPMI Medium 1640 (1X) (Gibco, 11875-093, 500 mL) supplemented with 10% v/v fetal bovine serum (FBS), 0.2% v/v fungizone (0.5 μg/mL amphotericin), 1% v/v Pen-Strep (100 Unit/mL penicillin, 100 μg/mL streptomycin). The cells were kept in a humidified incubator at 37 °C and 5% CO2.
(§3) For passage, all the cell types were detached when confluence reached about 80% by treating the cells with trypsin-EDTA at 37 °C. The effects of Ang (1—7) and PNA5 on cell proliferation were analyzed by measuring all of the above cell line responses to different concentrations of Ang (1—7) and PNA5 separately. The cells were seeded in 96-well black plates at a specific density and were kept to attach for 48 h. Then, the media containing compounds were removed from each well and replaced by 100 μL of media containing 20 μM resazurin sodium salt (was dissolved in un-supplemental media) and incubated for 4 h at 37 °C and 5% CO2. The fluorescence intensity of the metabolite (resorufin) produced by the viable cells was measured at 544 nm (the excitation) and 590 nm (the emission) using the Synergy H1 Multi-Mode Reader (BioTek Instruments Inc., Winooski, VT, USA). The relative cell viability of the cell line was calculated using Equation (6):(6) Relative viability %=Sample fluorescence intensity/Control fluorescence intensity×100%
In series [2] the test system is RPMI 2650 nasal epithelium cells. The experiment in a line: In vitro 2D cell viability, resazurin assay. As to conditions: for safe (non-toxic) concentration: nasal epithelium cells (RPMI2650).
Description: as §1
(§4) Human nasal epithelial cells (RPMI 2650) with passage numbers between 9 and 13 were used for the experiments. Eagle’s Minimum Essential Medium (EMEM) (ATCC® 30-2003™) supplemented with 10% (v/v) fetal bovine serum (FBS), 1% (v/v) Pen-Strep (100 Unit/mL penicillin, 100 μg/mL streptomycin), 0.2% (v/v) and fungizone (0.5 μg/mL amphotericin) was used to grow cells in a humidified incubator at 37 °C and 5% CO2. Normal Human Astrocytes (NHA) at passages 1 and 3 were used for the experiments. A supplements kit for a complete growth medium AGM™ SingleQuots™ (Lonza, CC-4123) was added to the growth medium of Astrocyte basal medium ABM™ (Lonza, CC-3187).
as §3
In series [3] the test system is A549 lung epithelial cells. The experiment in a line: In vitro 2D cell viability, resazurin assay. The settings on record: for safe (non-toxic) concentration: epithelium lung cells (A549).
Description: as §1, §2, §3
Series [4] relates to Normal Human Astrocytes (NHA). The experiment in a line: In vitro 2D cell viability, resazurin assay. The settings on record: for safe (non-toxic) concentration: astrocyte brain cells (NHA).
Description: as §1, §4, §3
Series [5] in a line: Solubility by shake-flask method (SFM) with HPLC. Type of series: physicochemical. On the procedure:
The solubilities of Ang (1—7) and PNA5 were determined by the SFM using conditions similar to previously reported by our group and in [39, 40, 41, 42]. Each compound’s excess powder was added to a specific volume of different solvents (purified water, phosphate buffered saline (PBS), normal saline (NS), methanol, and ethanol) in closed, light-protected glass vials. The solutions containing excess solid of Ang (1—7) and PNA5 were then capped and agitated at room temperature (25 °C) using a shaker. More powder was added to the vial if the dissolution was complete. The pH value of Ang (1—7) and PNA5 suspensions were adjusted to pH 6.5 (pseudo-isoelectric point calculated by MOE software) to determine the zwitterionic species’ solubilities and ensure the predominant presence of the unionized form of Ang (1—7) and PNA5. The separation of the saturated solution and the precipitate was performed by sedimentation. Aliquots of supernatants were withdrawn from all saturated solutions, diluted with each corresponding solvent, and injected into analytical HPLC. Each compound in each aliquot was measured against a calibration curve using the previously developed analytical HPLC method in our lab. Each compound’s solubility experiments in all solvents were repeated three times (n = 3, mean ± standard deviation).
The HPLC system is LC-2010HT next-generation HPLC (SHIMADZU Tokyo, Japan), and it is the same as previously used in [24]. This system consists of a degassing unit, low-pressure gradient unit, pump unit, mixer, ultra-fast autosampler, column oven, and a UV-VIS detector with a thermostatted flow cell system. The analysis was performed by a reverse phase HPLC assay, using Phenomenex Prodigy 5 um ODS (3) 250 × 4.6 mm HPLC Column. Ultraviolet detection was done at 280 nm. Mobile phase condition was a gradient of acetonitrile in water with 0.1% trifluoroacetic acid at two different percentages pumped from two pumps. The flow was 1 mL/min, the injection volume was 20 μL; the retention time for Ang (1—7) was ~7.7 min and for PNA5 was ~6.7 min. Quantification for both compounds was determined using peak area and calculated from freshly prepared standard curves.

For series [6], the system named is hCMEC/D3 blood–brain barrier endothelial cells. Briefly: In vitro 2D cell viability, resazurin assay. The settings on record: for safe (non-toxic) concentration: endothelial brain cells (hCMEC/D3). In general terms: Alamar Blue is a resazurin reagent that responds to reducing activity.
Description: as §1
The immortalized human cerebral microvascular endothelial (hCMEC/D3) at passages 29 and 31 were seeded on collagen-coated culture flasks. Cells were grown in EndoGRO™-MV Complete Media Kit (cat. no. SCME004) supplemented with one ng/mL FGF-2 (cat. no. GF003) and kept in a humidified incubator at 37 °C and 5% CO2.
as §3
The nature of series [7]: Karl Fisher coulometric titration, residual water content. Type of series: physicochemical. The settings on record: n = 3. As for the experimental part: All powders’ residual water content was quantified by KFT coulometrically using conditions similar to previously reported. A TitroLine® 7500 trace titrator (SI Analytics, Mainz, Germany) was used. A mass of 1–2 mg of powder sample was dissolved in 0.5 mL AQUA STAR anhydrous methanol and injected the sample solution into a reaction cell filled with Hydranal® Coulomat AD reagent. Then obtain the water content of the sample a simple calculation. All experiments were done in triplicate (n = 3).

In the case of `CC[C@H](C)[C@H](NC(=O)[C@H](Cc1ccc(O)cc1)NC(=O)[C@@H](NC(=O)[C@H](CCCNC(=N)N)NC(=O)[C@@H](N)CC(=O)O)C(C)C)C(=O)N[C@@H](Cc1c[nH]cn1)C(=O)N1CCC[C@H]1C(=O)O` [Ang (1—7), Asp-Arg-Val-Tyr-Ile-His-Pro], the “safe (non-toxic) concentration” value in series [1], in series [2], in series [3], in series [4] and in series [6] was “up to 1000 μg/mL” throughout. In addition, the “Solubility Category According to USP Definition” value is “Very slightly soluble (VSS)” in series [5] (Ethanol), “Slightly soluble (SS)” in series [5] (Methanol) and “Freely Soluble (FS)” in series [5] (PBS). Besides, the solubility in series [5] (Ethanol, 25 °C, n = 3, read-out: Solubility) was 0.16 ± 0.001 mg/mL; in series [5] (Ethanol, footnote: S in mMole unit, read-out: LogS (experimental) (converted)), 0.178 mM; in series [5] (H2O, footnote: S in mMole unit, read-out: LogS (experimental) (converted)), 195 mM; in series [5] (H2O, read-out: Solubility Category According to USP Definition), 100 to 1000 mg/mL; in series [5] (Methanol, 25 °C, n = 3, read-out: Solubility), 1 ± 0.005 mg/mL; in series [5] (Methanol, footnote: S in mMole unit, read-out: LogS (experimental) (converted)) it was 1.12 mM. Moreover, the solubility in series [5] (NS, footnote: S in mMole unit, read-out: LogS (experimental) (converted)) was 155 mM; in series [5] (NS, read-out: Solubility Category According to USP Definition), 100 to 1000 mg/mL; in series [5] (PBS, footnote: S in mMole unit, read-out: LogS (experimental) (converted)), 186 mM; in series [5] (pH 6.5, H2O, pH 6.5, 25 °C, n = 3, read-out: Solubility) it was 174 ± 0.19 mg/mL; in series [5] (pH 6.5, NS (normal saline), pH 6.5, 25 °C, n = 3, read-out: Solubility) it was 140.4 ± 0.32 mg/mL; in series [5] (pH 6.5, PBS, pH 6.5, 25 °C, n = 3, read-out: Solubility), 165.4 ± 0.34 mg/mL.
Consider `CC[C@H](C)[C@H](NC(=O)[C@H](Cc1ccc(O)cc1)NC(=O)[C@@H](NC(=O)[C@H](CCCNC(=N)N)NC(=O)[C@@H](N)CC(=O)O)C(C)C)C(=O)N[C@@H](Cc1c[nH]cn1)C(=O)N[C@@H](CO[C@@H]1O[C@H](CO)[C@@H](O)[C@H](O)[C@H]1O)C(N)=O` [PNA5, Asp-Arg-Val-Tyr-Ile-His-Ser-(O-β-D-Glc)-amide] (H-DRVYIHS(βGlc)-NH2), for which the “relative cell viability% vs control cells” value in series [1] (H441, 0.1, 1, 10 and 1000 µg/mL, p > 0.05, n = 6) is “no statistically significant difference”; in series [2] (RPMI2650, 0.1, 1, 10 and 1000 µg/mL, p > 0.05, n = 6), “no statistically significant difference”; in series [3] (A549, 0.1, 1, 10 and 1000 µg/mL, p > 0.05, n = 6) it was “no statistically significant difference”; in series [4] (NHA, 0.1, 1, 10 and 1000 µg/mL, p > 0.05, n = 6) it was “no statistically significant difference”; in series [6] (hCMEC/D3, 0.1, 1, 10 and 1000 µg/mL, p > 0.05, n = 6) it was “no statistically significant difference”. The “safe (non-toxic) concentration” value in series [1], in series [2], in series [3], in series [4] and in series [6] was “up to 1000 μg/mL” throughout. Besides, the “Solubility Category According to USP Definition” value in series [5] (Ethanol) and in series [5] (Methanol) was “Very slightly soluble (VSS)” each time. For the same compound, the solubility (thermodynamic) in series [5] (NS (normal saline), pH 6.5, 25 °C, n = 3) amounted to 269.3 ± 1.53 mg/mL (≈ 256 mM); in series [5] (phosphate buffered saline (PBS), PBS, pH 6.5, 25 °C, n = 3), 305.05 ± 0.22 mg/mL (≈ 290 mM); in series [5] (purified water, H2O, pH 6.5, 25 °C, n = 3), 275.3 ± 2.31 mg/mL (≈ 262 mM). Also, the solubility is 0.12 ± 0.003 mg/mL in series [5] (ethanol, 25 °C, n = 3, read-out: Solubility); 0.115 mM in series [5] (ethanol, footnote: S in mMole unit, read-out: LogS (experimental) (converted)); 0.34 ± 0.01 mg/mL in series [5] (methanol, 25 °C, n = 3, read-out: Solubility); 0.331 mM in series [5] (methanol, footnote: S in mMole unit, read-out: LogS (experimental) (converted)); 257 mM in series [5] (normal saline (NS), pH 6.5, NS, footnote: S in mMole unit, read-out: LogS (experimental) (converted)); 100 to 1000 mg/mL in series [5] (normal saline (NS), pH 6.5, NS, read-out: Solubility Category According to USP Definition). Besides, the solubility in series [5] (phosphate buffered saline (PBS), pH 6.5, PBS, footnote: S in mMole unit, read-out: LogS (experimental) (converted)) was 288 mM; in series [5] (phosphate buffered saline (PBS), pH 6.5, PBS, read-out: Solubility Category According to USP Definition), 100 to 1000 mg/mL; in series [5] (purified water, pH 6.5, H2O, footnote: S in mMole unit, read-out: LogS (experimental) (converted)), 263 mM; in series [5] (purified water, pH 6.5, H2O, read-out: Solubility Category According to USP Definition) it was 100 to 1000 mg/mL.
On to `OC[C@H]1O[C@H](O[C@H]2O[C@H](CO)[C@@H](O)[C@H](O)[C@H]2O)[C@H](O)[C@@H](O)[C@@H]1O` [Raw Trehalose, D (+)-Trehalose dihydrate], for which, in series [7], the “Water % (w/w)” value is on record as 8.55 ± 1.50 % (w/w).
